In patent US12486253B2, “Therapeutics for the degradation of mutant BRAF” (C4 THERAPEUTICS, INC., priority 2021, dated 2025):
Where two headings read alike, the source gives them in different places.

Molecular target: BRAF V600E (Homo sapiens, UniProt P15056, V600E)
Assay: HiBiT cellular BRAF^V600E degradation assay
Type: cell-based
Conditions: for DC50: concentration at which 50% of total cellular BRAF^V600E is degraded; for Emax: read-out: HiBit 24 h Emax
[1] = A375.10 cells, 24 h, residual protein remaining in the cell

Chain of BRAF V600E (P15056 whole entry V600E): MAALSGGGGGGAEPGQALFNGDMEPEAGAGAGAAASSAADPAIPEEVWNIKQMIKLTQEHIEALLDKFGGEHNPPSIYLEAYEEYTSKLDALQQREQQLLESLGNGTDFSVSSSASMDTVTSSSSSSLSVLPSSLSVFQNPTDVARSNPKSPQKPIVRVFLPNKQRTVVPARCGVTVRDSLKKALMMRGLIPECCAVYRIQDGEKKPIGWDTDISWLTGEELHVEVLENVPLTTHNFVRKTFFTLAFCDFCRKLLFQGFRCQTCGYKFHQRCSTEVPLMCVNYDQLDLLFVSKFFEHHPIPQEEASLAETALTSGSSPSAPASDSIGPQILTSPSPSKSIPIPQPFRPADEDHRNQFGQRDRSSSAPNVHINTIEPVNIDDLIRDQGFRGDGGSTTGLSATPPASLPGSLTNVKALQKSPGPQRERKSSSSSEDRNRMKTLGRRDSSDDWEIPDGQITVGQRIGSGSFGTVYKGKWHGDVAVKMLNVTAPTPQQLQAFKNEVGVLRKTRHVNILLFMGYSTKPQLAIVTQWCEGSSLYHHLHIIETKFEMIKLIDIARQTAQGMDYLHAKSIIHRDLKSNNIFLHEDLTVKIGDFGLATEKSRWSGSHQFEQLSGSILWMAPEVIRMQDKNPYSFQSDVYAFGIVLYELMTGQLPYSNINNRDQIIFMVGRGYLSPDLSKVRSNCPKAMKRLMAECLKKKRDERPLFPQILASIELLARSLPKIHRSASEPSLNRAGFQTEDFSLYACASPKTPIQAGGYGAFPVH

Molecule `Cn1nc(C2CCC(=O)NC2=O)c2ccc(C3CCN(CC(=O)N4CCC5(CC4)C[C@@H](n4cnc6ccc(Oc7c(F)ccc(NS(=O)(=O)C8CCCC8)c7C#N)cc6c4=O)CO5)CC3)cc21` (stereo partly drawn) [Example 167, N-[2-cyano-3-[3-[(3R)-8-[2-[4-[3-(2,6-dioxopiperidin-3-yl)-1-methylindazol-6-yl]piperidin-1-yl]acetyl]-1-oxa-8-azaspiro[4.5]decan-3-yl]-4-oxoquinazolin-6-yl]oxy-4-fluorophenyl]cyclopentanesulfonamide] has a DC50 (A375.10 cells, 24 h) of 42.6 nM and an Emax [1] of 16.5%.

Work on `CC(C)S(=O)(=O)Nc1ccc(F)c(Oc2ccc3ncn([C@H]4COC5(CCN(C(=O)CN6CCC(c7ccc8c(C9CCC(=O)NC9=O)nn(C)c8c7)CC6)CC5)C4)c(=O)c3c2)c1C#N` (stereo partly drawn) [Example 168, N-[2-cyano-3-[3-[(3R)-8-[2-[4-[3-(2,6-dioxopiperidin-3-yl)-1-methylindazol-6-yl]piperidin-1-yl]acetyl]-1-oxa-8-azaspiro[4.5]decan-3-yl]-4-oxoquinazolin-6-yl]oxy-4-fluorophenyl]propane-2-sulfonamide] yielded a DC50 (A375.10 cells, 24 h) of 36.5 nM and an Emax [1] of 14.1%.

Work on `CCN(C)S(=O)(=O)Nc1ccc(F)c(Oc2ccc3ncn([C@H]4COC5(CCN(C(=O)CN6CC(c7ccc8c(C9CCC(=O)NC9=O)nn(C)c8c7)C6)CC5)C4)c(=O)c3c2)c1C#N` (stereo partly drawn) [Example 171, (3R)-3-[6-[2-cyano-3-[[ethyl(methyl)sulfamoyl]amino]-6-fluorophenoxy]-4-oxoquinazolin-3-yl]-8-[2-[3-[3-(2,6-dioxopiperidin-3-yl)-1-methylindazol-6-yl]azetidin-1-yl]acetyl]-1-oxa-8-azaspiro[4.5]decane] yielded a DC50 (A375.10 cells, 24 h) of 30.7 nM and an Emax [1] of 7.11%.

Work on `CCN(C)S(=O)(=O)Nc1ccc(F)c(Oc2ccc3ncn([C@H]4CCC5(CCN(C(=O)CC6(O)CCN(c7ccc8c(N9CCC(=O)NC9=O)nn(C)c8c7F)CC6)CC5)C4)c(=O)c3c2)c1C#N` [Example 172, 6-[2-cyano-3-[[ethyl(methyl)sulfamoyl]amino]-6-fluorophenoxy]-3-[(3S)-8-[2-[1-[3-(2,4-dioxo-1,3-diazinan-1-yl)-7-fluoro-1-methylindazol-6-yl]-4-hydroxypiperidin-4-yl]acetyl]-8-azaspiro[4.5]decan-3-yl]-4-oxoquinazoline] yielded a DC50 (A375.10 cells, 24 h) of 28.9 nM and an Emax [1] of 25.1%.

Work on `CCN(C)S(=O)(=O)Nc1ccc(F)c(Oc2ccc3ncn([C@H]4COC5(CCN(C(=O)CC6(O)CCN(c7ccc8c(N9CCC(=O)NC9=O)nn(C)c8c7F)CC6)CC5)C4)c(=O)c3c2)c1C#N` [Example 173, (3R)-3-[6-[2-cyano-3-[[ethyl(methyl)sulfamoyl]amino]-6-fluorophenoxy]-4-oxoquinazolin-3-yl]-8-[2-[1-[3-(2,4-dioxo-1,3-diazinan-1-yl)-7-fluoro-1-methylindazol-6-yl]-4-hydroxypiperidin-4-yl]acetyl]-1-oxa-8-azaspiro[4.5]decane] yielded a DC50 (A375.10 cells, 24 h) of 192 nM and an Emax [1] of 46%.

`COC1CCN(S(=O)(=O)Nc2ccc(F)c(Oc3ccc4ncn([C@H]5COC6(CCN(C(=O)CC7(O)CCN(c8cc9c(cc8F)c(N8CCC(=O)NC8=O)nn9C)CC7)CC6)C5)c(=O)c4c3)c2C#N)C1` (stereo partly drawn) [Example 175, N-[2-cyano-3-[3-[(3R)-8-[2-[1-[3-(2,4-dioxo-1,3-diazinan-1-yl)-5-fluoro-1-methylindazol-6-yl]-4-hydroxypiperidin-4-yl]acetyl]-1-oxa-8-azaspiro[4.5]decan-3-yl]-4-oxoquinazolin-6-yl]oxy-4-fluorophenyl]-3-methoxypyrrolidine-1-sulfonamide] gave a DC50 (A375.10 cells, 24 h) of 31.2 nM and an Emax [1] of 31.1%.

In the case of `CO[C@H]1CCN(S(=O)(=O)Nc2ccc(F)c(Oc3ccc4ncn([C@H]5COC6(CCN(C(=O)CC7(O)CCN(c8cc9c(cc8F)c(N8CCC(=O)NC8=O)nn9C)CC7)CC6)C5)c(=O)c4c3)c2C#N)C1` [Example 176, (3S)—N-[2-cyano-3-[3-[(3R)-8-[2-[1-[3-(2,4-dioxo-1,3-diazinan-1-yl)-5-fluoro-1-methylindazol-6-yl]-4-hydroxypiperidin-4-yl]acetyl]-1-oxa-8-azaspiro[4.5]decan-3-yl]-4-oxoquinazolin-6-yl]oxy-4-fluorophenyl]-3-methoxypyrrolidine-1-sulfonamide], the DC50 (A375.10 cells, 24 h) is reported as 20.5 nM and the Emax [1] is reported as 24.8%.

`CO[C@@H]1CCN(S(=O)(=O)Nc2ccc(F)c(Oc3ccc4ncn([C@H]5COC6(CCN(C(=O)CC7(O)CCN(c8cc9c(cc8F)c(N8CCC(=O)NC8=O)nn9C)CC7)CC6)C5)c(=O)c4c3)c2C#N)C1` [Example 177, (3R)—N-[2-cyano-3-[3-[(3R)-8-[2-[1-[3-(2,4-dioxo-1,3-diazinan-1-yl)-5-fluoro-1-methylindazol-6-yl]-4-hydroxypiperidin-4-yl]acetyl]-1-oxa-8-azaspiro[4.5]decan-3-yl]-4-oxoquinazolin-6-yl]oxy-4-fluorophenyl]-3-methoxypyrrolidine-1-sulfonamide] was tested, and the DC50 (A375.10 cells, 24 h) was 18 nM and the Emax [1] was 22.3%.

`CCN(C)S(=O)(=O)Nc1ccc(F)c(Oc2ccc3ncn(C4COC5(CCN(C(=O)CC6(O)CCN(c7cc8c(cc7F)c(N7CCC(=O)NC7=O)nn8C)CC6)CC5)C4)c(=O)c3c2N(C)C)c1C#N` (centres unmarked) [Example 179, 3-[6-[2-cyano-3-[[ethyl(methyl)sulfamoyl]amino]-6-fluorophenoxy]-5-(dimethylamino)-4-oxoquinazolin-3-yl]-8-[2-[1-[3-(2,4-dioxo-1,3-diazinan-1-yl)-5-fluoro-1-methylindazol-6-yl]-4-hydroxypiperidin-4-yl]acetyl]-1-oxa-8-azaspiro[4.5]decane] showed a DC50 (A375.10 cells, 24 h) of 27.8 nM and an Emax [1] of 19.3%.

Molecule `CCN(C)S(=O)(=O)Nc1ccc(F)c(Oc2ccc3ncn([C@H]4COC5(CCN(C(=O)CC6CCN(c7cc8c(cc7F)c(N7CCC(=O)NC7=O)nn8C)CC6)CC5)C4)c(=O)c3c2)c1C#N` [Example 180, (3R)-3-[6-[2-cyano-3-[[ethyl(methyl)sulfamoyl]amino]-6-fluorophenoxy]-4-oxoquinazolin-3-yl]-8-[2-[1-[3-(2,4-dioxo-1,3-diazinan-1-yl)-5-fluoro-1-methylindazol-6-yl]piperidin-4-yl]acetyl]-1-oxa-8-azaspiro[4.5]decane] has a DC50 (A375.10 cells, 24 h) of 9.62 nM and an Emax of 20.6%.

With `CCN(C)S(=O)(=O)Nc1ccc(F)c(Oc2ccc3ncn([C@H]4COC5(CCN(C(=O)CC6(O)CCN(c7cc8c(cc7F)c(N7CCC(=O)NC7=O)nn8C)CC6)CC5)C4)c(=O)c3c2N)c1C#N` [Example 182, (3R)-3-[5-amino-6-[2-cyano-3-[[ethyl(methyl)sulfamoyl]amino]-6-fluorophenoxy]-4-oxoquinazolin-3-yl]-8-[2-[1-[3-(2,4-dioxo-1,3-diazinan-1-yl)-5-fluoro-1-methylindazol-6-yl]-4-hydroxypiperidin-4-yl]acetyl]-1-oxa-8-azaspiro[4.5]decane] the DC50 (A375.10 cells, 24 h) was 16.2 nM and the Emax [1] was 19.8%.

For `CCN(C)S(=O)(=O)Nc1ccc(F)c(Oc2ccc3ncn([C@H]4COC5(CCN(C(=O)CC6(O)CCN(c7cc8c(cc7F)c(N7CCC(=O)NC7=O)nn8C)CC6)CC5)C4)c(=O)c3c2O)c1C#N` [Example 186, (3R)-3-[6-[2-cyano-3-[[ethyl(methyl)sulfamoyl]amino]-6-fluorophenoxy]-5-hydroxy-4-oxoquinazolin-3-yl]-8-[2-[1-[3-(2,4-dioxo-1,3-diazinan-1-yl)-5-fluoro-1-methylindazol-6-yl]-4-hydroxypiperidin-4-yl]acetyl]-1-oxa-8-azaspiro[4.5]decane], the DC50 (A375.10 cells, 24 h) was 16.3 nM and the Emax [1] was 25.1%.

`Cn1nc(N2CCC(=O)NC2=O)c2cc(F)c(N3CCC(O)(CC(=O)N4CCC5(CC4)C[C@@H](n4cnc6ccc(Oc7c(F)ccc(NS(=O)(=O)N8CCCCC8)c7C#N)cc6c4=O)CO5)CC3)cc21` [Example 187, N-[2-cyano-3-[3-[(3R)-8-[2-[1-[3-(2,4-dioxo-1,3-diazinan-1-yl)-5-fluoro-1-methylindazol-6-yl]-4-hydroxypiperidin-4-yl]acetyl]-1-oxa-8-azaspiro[4.5]decan-3-yl]-4-oxoquinazolin-6-yl]oxy-4-fluorophenyl]piperidine-1-sulfonamide] gave a DC50 (A375.10 cells, 24 h) of 38.8 nM and an Emax [1] of 24.1%.

With `Cn1nc(N2CCC(=O)NC2=O)c2cc(F)c(N3CCC(O)(CC(=O)N4CCC5(CC4)C[C@@H](n4cnc6ccc(Oc7c(F)ccc(NS(=O)(=O)C8CCCCC8)c7C#N)cc6c4=O)CO5)CC3)cc21` [Example 188, N-[2-cyano-3-[3-[(3R)-8-[2-[1-[3-(2,4-dioxo-1,3-diazinan-1-yl)-5-fluoro-1-methylindazol-6-yl]-4-hydroxypiperidin-4-yl]acetyl]-1-oxa-8-azaspiro[4.5]decan-3-yl]-4-oxoquinazolin-6-yl]oxy-4-fluorophenyl]cyclohexanesulfonamide] the DC50 (A375.10 cells, 24 h) was 40.6 nM and the Emax was 27.3%.

With `CC(C)S(=O)(=O)Nc1ccc(F)c(Oc2ccc3ncn([C@H]4COC5(CCN(C(=O)CC6(O)CCN(c7cc8c(cc7F)c(N7CCC(=O)NC7=O)nn8C)CC6)CC5)C4)c(=O)c3c2)c1C#N` [Example 189, N-[2-cyano-3-[3-[(3R)-8-[2-[1-[3-(2,4-dioxo-1,3-diazinan-1-yl)-5-fluoro-1-methylindazol-6-yl]-4-hydroxypiperidin-4-yl]acetyl]-1-oxa-8-azaspiro[4.5]decan-3-yl]-4-oxoquinazolin-6-yl]oxy-4-fluorophenyl]propane-2-sulfonamide] the DC50 (A375.10 cells, 24 h) was 23.5 nM and the Emax [1] was 24.5%.

Work on `Cn1nc(N2CCC(=O)NC2=O)c2cc(F)c(N3CCC(O)(CC(=O)N4CCC5(CC4)C[C@@H](n4cnc6ccc(Oc7c(F)ccc(NS(=O)(=O)N8CC[C@@H](F)C8)c7C#N)cc6c4=O)CO5)CC3)cc21` [Example 190, (3R)—N-[2-cyano-3-[3-[(3R)-8-[2-[1-[3-(2,4-dioxo-1,3-diazinan-1-yl)-5-fluoro-1-methylindazol-6-yl]-4-hydroxypiperidin-4-yl]acetyl]-1-oxa-8-azaspiro[4.5]decan-3-yl]-4-oxoquinazolin-6-yl]oxy-4-fluorophenyl]-3-fluoropyrrolidine-1-sulfonamide] yielded a DC50 (A375.10 cells, 24 h) of 39.3 nM and an Emax [1] of 24.7%.
